Laboratory results as given in patent US20250115865A1, “MAMMALIAN SPERM PREPARATION METHOD, ARTIFICIAL INSEMINATION METHOD, IN-VITRO FERTILIZATION METHOD, AND MEDIUM” (Hiroshima University, priority 2022, published 2025).

How the values were obtained:
pig sperm = experiment: Pig artificial insemination with treated semen, sex of offspring; format: in vivo; details: semen treated in modified HTF medium pH 7.8, R848 3 nM, 60 minutes, 37° C.
Description: Pig semen diluted to 5 billion/100 mL with Hiro Swine B solution was centrifuged (500 G, 5 minutes, room temperature), and then the supernatant was discarded. The pig sperm were suspended in the same amount of modified HTF medium (pH 7.8, supplemented with R848 (3 nM)), and then cultured in a thermostat (60 minutes, 37° C.). Thereafter, centrifugation (500 G, 5 minutes, room temperature) was carried out, and the supernatant was discarded. Subsequently, the sperm were suspended in a diluent for artificial insemination, and then subjected to artificial insemination.

mouse sperm [1] = experiment: Mouse in vitro fertilization with treated sperm, sex of blastocyst embryos by real-time PCR; format: cell-based; details: sperm treated with R848 3 nM
Description: Sperm were collected from the cauda epididymis of 12-week-old mature male mice. The mouse sperm were cultured in modified HTF medium (Glu medium, pH 7.8, supplemented with R848 (3 nM)) (60 minutes, 37° C.). In vitro fertilization was performed using sperm cultured in the same manner as in Experiment 7. Five days later, sperm that reached blastocyst embryos were collected, and the ratio between X-sperm and Y-sperm was calculated by real-time PCR.

bovine sperm [2] = experiment: X-sperm/Y-sperm ratio of bovine lower-layer sperm by fluorescence in situ hybridization; format: cell-based; details: freeze-thawed bovine sperm, Glu medium pH 7.7, R848 3 nM, swim-up, FISH, FIG. 8
mouse sperm [3] = experiment: Mouse artificial insemination with treated sperm, sex of blastocyst embryos; format: in vivo; details: sperm treated with R848 3 nM, Glu medium pH 7.8, 60 minutes, 5/6 embryos
Description: Sperm were collected from the cauda epididymis of 12-week-old mature male mice. The mouse sperm were cultured in modified HTF medium (Glu medium, pH 7.8, supplemented with R848 (3 nM)) (60 minutes, 37° C.). Sperm cultured in the same manner as in Experiment 7 were subjected to artificial insemination, and the resulting blastocyst embryos were collected. As a result, 83.3% (5/6) of the embryos were female embryos.

bovine sperm [4] = experiment: Bovine in vitro fertilization with upper-layer sperm, sex identification of blastocyst embryos by real-time PCR; format: cell-based; details: modified HTF medium pH 7.4, R848 3 nM, 30 minutes room temperature, FIG. 9
Description: Freeze-thawed bovine sperm, thawed and washed in modified HTF medium, were cultured in modified HTF medium (pH 7.4, supplemented with R848 (3 nM)) (30 minutes, room temperature). Centrifugation was carried out, and then the supernatant was discarded. Subsequently, the sperm were resuspended in modified HTF medium supplemented with 1% PVP and R848 (3 nM), and then placed under PVP-free modified HTF medium to form a lower layer. Fifteen minutes later, 1.5 mL of the upper layer was collected, washed, and then subjected to in vitro fertilization. Thereafter, the resulting blastocyst embryos were subjected to sex identification by real-time PCR.

bovine sperm [5] = experiment: Acrosome retention rate of bovine sperm after culture and swim-up; format: cell-based; details: freeze-thawed bovine sperm, Glu medium pH 7.7, R848 3 nM, 30 minutes room temperature, swim-up from 1% PVP 15 minutes; FIG. 7
Description: Freeze-thawed bovine sperm, thawed and washed in modified HTF medium, were cultured in modified HTF medium (Glu medium, pH 7.7, supplemented with R848 (3 nM)) (30 minutes, room temperature). Centrifugation was carried out, and then the supernatant was discarded. Subsequently, the sperm were resuspended in modified HTF medium supplemented with 1% PVP and R848 (3 nM), and then placed under PVP-free modified HTF medium to form a lower layer. Fifteen minutes later, 1.5 mL of the upper layer and 0.5 mL of the lower layer were collected. Each layer was subjected to acrosome staining, and the acrosome retention rate was determined.

[6] = blastocyst embryos after five days, Glu medium pH 7.8, 22 individuals

CCOCc1nc2c(N)nc3ccccc3c2n1CC(C)(C)O [R848, resiquimod]
Female ratio (pig sperm): 64%
Female (number of individuals) (pig sperm; 36 individuals): 23
Male (number of individuals) (pig sperm; 36 individuals): 13
Female (number of embryos) (mouse sperm [1]; [6]): 17
Male (number of embryos) (mouse sperm [1]; [6]): 5
Female ratio (mouse sperm [1]; blastocyst embryos, Glu medium pH 7.8): 77%
Y-sperm among the sperm in the lower layer (bovine sperm [2]): 84%
female embryos among blastocyst embryos (mouse sperm [3]): 83.3%
XX embryos (female embryos) among blastocyst embryos (bovine sperm [4]): 91%
acrosome retention rate of the sperm in the upper layer (bovine sperm [5]): 70%
